In patent publication US5399575A, “Pyridine compounds which have useful pharmaceutical activity” (Boehringer Mannheim GmbH, priority 1990, dated 1995):

The compounds below were run on passive sensitised guinea pig lung parenchyma strips (assay: Inhibition of the antigen-caused constriction of passive sensitised guinea pig lung parenchyma strips in vitro (organ bath)). Settings: Cavia porcellus; concentration 10 μM; ovalbumin-caused constriction, 20 min pre-incubation at 37° C.; % reduction of constriction amplitude vs untreated control constrictions; read-out: superfusion inhibition (%).
Type: cell-based
Protocol: Inhibition of the antigen-caused constriction of passive sensitised guinea pig lung parenchyma strips in vitro (organ bath)
For the in vitro investigation of the compounds according to the invention, the inhibition of the antigen-caused constriction of passive sensitised guinea pig lung parenchyma strips was measured, as described in the following:
Pribright white guinea pigs were stunned by a neck blow and exsanguinated. The lungs were rinsed substantially free of blood in situ with Krebs buffer, pH 7.4.
Subsequently, the lungs were removed, cut up into strips (about 20×4×4 mm) and the strips passively sensitised for one hour at room temperature with a 1:50 dilution of a homologous anti-ovalbumin antiserum and then washed 1× with Krebs buffer.
The antiserum was previously produced according to DAVIES in guinea pigs of the same strain by repeated injection of ovalbumin (2×crystallised) with addition of complete Freund's adjuvant.
Until its use, the antiserum was stored at -18° C. undiluted.
Subsequently, the lung strips were suspended individually on an isometric measurement sensor with an initial tension of 1.2 g.
Thereafter, the baths were filled with Krebs buffer and continously gassed at 37° C. with O2 (95%) and CO2 (5%). The constrictions of the lung strips were recorded on a recorder via an amplifier.
After 30 minutes acclimatisation phase, histamine control spasms were produced for the recognition of the reaction ability of the organ pieces, washed, subsequently the test substance pre-incubated at 37° C. for 20 minutes and thereafter the ovalbumin-caused constriction initiated.
The inhibition actions of the compounds according to the invention were expressed as percentage reduction of the constriction amplitude of the "samples with test substance" in relationship to the "untreated control constrictions".
In the case of `C(=Cc1ccc(OCCCCc2nnn[nH]2)cc1)c1ccncc1` [Example 15, 5-{4-{4-[2-(4-Pyridinyl)-ethenyl]-phenoxy}butyl}-1H-tetrazole], the inhibition at 10 µM is reported as 56%. `O=C(CCCCOc1ccccc1CCc1ccccn1)Nc1nnn[nH]1` [Example 18h, 5-{2-[2-(2-pyridinyl)-ethyl]-phenoxy}-valeric acid N-(1H-tetrazol-5-yl)-amide] gave an inhibition at 10 µM of 53%. Compound `O=C(O)c1ccccc1SCCCOc1ccc(CCc2ccncc2)cc1` [Example 14, 2-{3-{4-[2-(4-Pyridinyl)-ethyl]-phenoxy}-propylthio}-benzoic acid] has an inhibition at 10 µM of 56%. `O=C(CCCOc1ccc(CCc2ccncc2)cc1)Nc1nnn[nH]1` [Example 18b] was tested, and the inhibition at 10 µM was 32%. Work on `O=C(O)c1ccccc1SCCCCOc1ccc(C=Cc2ccncc2)cc1` [Example 12, 2-{4-{4-[2-(4-Pyridinyl)-ethenyl]-phenoxy}-butylthio}-benzoic acid] yielded an inhibition at 10 µM of 42%. With `O=C(CCCCOc1ccccc1C=Cc1ccccn1)Nc1nnn[nH]1` [Example 18c, 5-{2-[2-(2-pyridinyl)-ethenyl]-phenoxy}-valeric acid N-(1H-tetrazol-5-yl)-amide] the inhibition at 10 µM was 33%.
